Assay results reported in patent publication US11629171B2, “Beta-hairpin peptidomimetics” (POLYPHOR AG, priority 2017, dated 2023).
≈ marks a conversion by molar mass, not a printed value. Where a SMILES comes first, the peptide text is derived from it. Bridges are numbered along the chain shown (N, C = ends). Roman numbers before positions name the chains, in order. [ ]: non-standard residue; d: D form. The star is where a group is joined. Thr(ol) = C[C@@H](O)[C@H](N)CO; Tle = CC(C)(C)[C@H](N)C(=O)O; Hiv = CC(C)[C@H](O)C(=O)O; Isovaleryl = CC(C)CC(=O)*; dDab = NCC[C@@H](N)C(=O)O; hSer = N[C@@H](CCO)C(=O)O; Dab = NCC[C@H](N)C(=O)O; Dap = NC[C@H](N)C(=O)O

What was measured:
Type in all cases: cell-based
[1] = tested on: Acinetobacter baumannii DSM 30008; details: DSM 30008
Outline: (§1)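 Standard CLSI microdilution testing: bacterial suspensions standardized against 0.5 McFarland to about 10^6 CFU/mL in MH-II broth meet serially halved peptide concentrations in broth containing 0.002% polysorbate 80; incubation lasts 18-20 h at 35° C before the MIC is scored.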

Escherichia coli 926415 = details: 926415
Outline: as §1

[2] = tested on: Klebsiella pneumoniae SSI #3010; details: SSI #3010
Outline: as §1

[3] = tested on: Enterobacter cloacae 848840; details: 848840
Outline: as §1

[4] = tested on: Escherichia coli ATCC 25922; details: ATCC 25922
Outline: as §1

[5] = tested on: Klebsiella pneumoniae 968733; details: 968733
Outline: as §1

[6] = tested on: Pseudomonas aeruginosa ATCC 27853; details: ATCC 27853
Outline: as §1

[7] = tested on: Acinetobacter baumannii 872842; details: 872842
Outline: as §1

[8] = tested on: human red blood cells (hRBC); experiment: Hemolysis; details: red cells of human, 1 h, 200
Outline: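 Washed fresh human RBC (20% v/v) incubated with peptide at 200 μg/mL for 1 h at 37° C with shaking. Supernatant OD540 measured after dilution, blank corrected; percent hemolysis = OD540 peptide / OD540 of 2% Triton X-100 lysis × 100, PBS with 10% water as 0%.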

Row | MIC [1] | MIC (Escherichia coli 926415) | MIC [2] | MIC [3] | MIC [4] | MIC [5] | MIC [6] | MIC [7] | SMILES | Hemolysis at 200 μg/mL [8]
1 | 0.03125 µg/mL (≈ 0.0127 µM) | 0.0625 µg/mL (≈ 0.0253 µM) | 0.0625 µg/mL (≈ 0.0253 µM) | 0.0625 µg/mL (≈ 0.0253 µM) | 0.03125 µg/mL (≈ 0.0127 µM) | 0.125 µg/mL (≈ 0.0506 µM) | 0.125 µg/mL (≈ 0.0506 µM) | 0.03125 µg/mL (≈ 0.0127 µM) | CC(=O)N[C@H](C(=O)N[C@H]1CSSC[C@@H](C(=O)N[C@H](C(N)=O)[C@@H](C)O)NC(=O)[C@H](C(C)(C)C)NC(=O)[C@H](CCC(=O)O)NC(=O)[C@H](Cc2c[nH]c3ccccc23)NC(=O)[C@H](CO)NC(=O)[C@@H](CCN)NC(=O)[C@H](CCC(=O)N[C@@H](CCN)C(=O)N[C@H](C(=O)N[C@@H](CN)C(=O)N[C@H]2CCNC(=O)[C@H]([C@@H](C)O)NC(=O)[C@H](CCN)NC(=O)[C@H](CCN)NC(=O)[C@H](CC(C)C)NC(=O)[C@@H](CC(C)C)NC(=O)[C@H](CCN)NC2=O)[C@@H](C)O)NC(=O)[C@H](CCN)NC(=O)[C@H](Cc2ccc(O)cc2)NC1=O)C(C)C [Ex. 135] (I: Ac-VCY[Dab]E[dDab]SWE[Tle]CT-NH2 / II: [Dab]T[Dap][Dab][Dab][dL]L[Dab][Dab]T; disulfide I:2-I:11; amide I:5-II:N; lactam II:4-II:C) | <1%
2 | 0.0625 µg/mL (≈ 0.0253 µM) | 0.5 µg/mL (≈ 0.203 µM) | 0.0625 µg/mL (≈ 0.0253 µM) | 0.125 µg/mL (≈ 0.0506 µM) | 0.03125 µg/mL (≈ 0.0127 µM) | 1 µg/mL (≈ 0.405 µM) | 0.125 µg/mL (≈ 0.0506 µM) | 0.25 µg/mL (≈ 0.101 µM) | CC(=O)N[C@H](C(=O)N[C@H]1CSSC[C@@H](C(=O)N[C@@H](CO)C(N)=O)NC(=O)[C@H](C(C)C)NC(=O)[C@H](CCC(=O)O)NC(=O)[C@H](Cc2c[nH]c3ccccc23)NC(=O)[C@H](CO)NC(=O)[C@@H](CCN)NC(=O)[C@H](CCC(=O)N[C@@H](CCN)C(=O)N[C@H](C(=O)N[C@@H](CN)C(=O)N[C@H]2CCNC(=O)[C@H]([C@@H](C)O)NC(=O)[C@H](CCN)NC(=O)[C@H](CCN)NC(=O)[C@H](CC(C)C)NC(=O)[C@@H](CC(C)C)NC(=O)[C@H](CCN)NC2=O)[C@@H](C)O)NC(=O)[C@H](CCCCN)NC(=O)[C@H](Cc2ccc(O)cc2)NC1=O)C(C)C [Ex. 151] (I: Ac-VCYKE[dDab]SWEVCS-NH2 / II: [Dab]T[Dap][Dab][Dab][dL]L[Dab][Dab]T; disulfide I:2-I:11; amide I:5-II:N; lactam II:4-II:C) | <1%
3 | 0.0625 µg/mL (≈ 0.0258 µM) | 0.125 µg/mL (≈ 0.0515 µM) | 0.03125 µg/mL (≈ 0.0129 µM) | 0.125 µg/mL (≈ 0.0515 µM) | 0.0625 µg/mL (≈ 0.0258 µM) | 0.125 µg/mL (≈ 0.0515 µM) | 0.0625 µg/mL (≈ 0.0258 µM) | 0.0625 µg/mL (≈ 0.0258 µM) | CC(=O)N[C@H](C(=O)N[C@H]1CSSC[C@@H](C(=O)N[C@@H](CO)C(N)=O)NC(=O)[C@H](C(C)(C)C)NC(=O)[C@H](CO)NC(=O)[C@H](Cc2c[nH]c3ccccc23)NC(=O)[C@H](CCN)NC(=O)[C@@H](CCN)NC(=O)[C@H](CCC(=O)N[C@@H](CCN)C(=O)N[C@H](C(=O)N[C@@H](CN)C(=O)N[C@H]2CCNC(=O)[C@H]([C@@H](C)O)NC(=O)[C@H](CCN)NC(=O)[C@H](CCN)NC(=O)[C@H](CC(C)C)NC(=O)[C@@H](CC(C)C)NC(=O)[C@H](CCN)NC2=O)[C@@H](C)O)NC(=O)[C@H]([C@@H](C)O)NC(=O)[C@H](Cc2ccc(O)cc2)NC1=O)C(C)C [Ex. 252] (I: Ac-VCYTE[dDab][Dab]WS[Tle]CS-NH2 / II: [Dab]T[Dap][Dab][Dab][dL]L[Dab][Dab]T; disulfide I:2-I:11; amide I:5-II:N; lactam II:4-II:C) | 2%
4 | 0.0625 µg/mL (≈ 0.0265 µM) | 0.125 µg/mL (≈ 0.0531 µM) | 0.125 µg/mL (≈ 0.0531 µM) | 0.5 µg/mL (≈ 0.212 µM) | 0.125 µg/mL (≈ 0.0531 µM) | 0.5 µg/mL (≈ 0.212 µM) | 0.25 µg/mL (≈ 0.106 µM) | 0.0625 µg/mL (≈ 0.0265 µM) | CC(C)C[C@@H]1NC(=O)[C@@H](CC(C)C)NC(=O)[C@H](CCN)NC(=O)[C@@H](NC(=O)[C@H](CN)NC(=O)[C@@H](NC(=O)[C@H](CCN)NC(=O)CC[C@H]2NC(=O)[C@@H](CCN)NC(=O)CNC(=O)[C@H](CCN)NC(=O)[C@H](Cc3ccc(O)cc3)NC(=O)[C@@H](NC(=O)[C@@H](O)C(C)C)CSSC[C@@H](C(=O)N[C@H](C(N)=O)[C@@H](C)O)NC(=O)[C@H](C(C)(C)C)NC(=O)[C@H](CO)NC(=O)[C@H](Cc3c[nH]c4ccccc34)NC2=O)[C@@H](C)O)CCNC(=O)[C@H]([C@@H](C)O)NC(=O)[C@H](CCN)NC(=O)[C@H](CCN)NC1=O [Ex. 171] (I: H-[Hiv]CY[Dab]G[dDab][dE]WS[Tle]CT-NH2 / II: [Dab]T[Dap][Dab][Dab][dL]L[Dab][Dab]T; disulfide I:2-I:11; amide I:7-II:N; lactam II:4-II:C) | <1%
5 | 0.03125 µg/mL (≈ 0.0128 µM) | 0.5 µg/mL (≈ 0.205 µM) | 0.0625 µg/mL (≈ 0.0256 µM) | 0.25 µg/mL (≈ 0.102 µM) | 0.0625 µg/mL (≈ 0.0256 µM) | 0.5 µg/mL (≈ 0.205 µM) | 0.125 µg/mL (≈ 0.0512 µM) | 0.125 µg/mL (≈ 0.0512 µM) | CC(=O)N[C@H](C(=O)N[C@H]1CSSC[C@@H](C(=O)N[C@@H](CO)C(N)=O)NC(=O)[C@H](C(C)C)NC(=O)[C@H](CCC(=O)O)NC(=O)[C@H](Cc2c[nH]c3ccccc23)NC(=O)[C@H](CCN)NC(=O)[C@@H](CCN)NC(=O)[C@H](CCC(=O)N[C@@H](CCN)C(=O)N[C@H](C(=O)N[C@@H](CN)C(=O)N[C@H]2CCNC(=O)[C@H]([C@@H](C)O)NC(=O)[C@H](CCN)NC(=O)[C@H](CCN)NC(=O)[C@H](CC(C)C)NC(=O)[C@@H](CC(C)C)NC(=O)[C@H](CCN)NC2=O)[C@@H](C)O)NC(=O)[C@H](CO)NC(=O)[C@H](Cc2ccc(O)cc2)NC1=O)C(C)C [Ex. 268] (I: Ac-VCYSE[dDab][Dab]WEVCS-NH2 / II: [Dab]T[Dap][Dab][Dab][dL]L[Dab][Dab]T; disulfide I:2-I:11; amide I:5-II:N; lactam II:4-II:C) | <1%
6 | 0.0625 µg/mL (≈ 0.0256 µM) | 1 µg/mL (≈ 0.409 µM) | 0.125 µg/mL (≈ 0.0512 µM) | 0.5 µg/mL (≈ 0.205 µM) | 0.0625 µg/mL (≈ 0.0256 µM) | 4 µg/mL (≈ 1.64 µM) | 0.25 µg/mL (≈ 0.102 µM) | 0.5 µg/mL (≈ 0.205 µM) | CC(C)C[C@@H]1NC(=O)[C@@H](CC(C)C)NC(=O)[C@H](CCN)NC(=O)[C@@H](NC(=O)[C@H](CCN)NC(=O)[C@@H](NC(=O)[C@H](CCN)NC(=O)CC[C@@H]2NC(=O)[C@@H](NC(=O)[C@H](Cc3ccc(O)cc3)NC(=O)[C@H](CCC(=O)O)NC(=O)[C@@H](O)C(C)C)CSSC[C@@H](C(=O)N[C@H](C(=O)N[C@@H](CCN)C(=O)N[C@H](CO)[C@@H](C)O)C(C)(C)C)NC(=O)[C@H](Cc3c[nH]c4ccccc34)NC(=O)[C@H]([C@@H](C)O)NC(=O)[C@@H](CCN)NC2=O)[C@@H](C)O)CCNC(=O)[C@H]([C@@H](C)O)NC(=O)[C@H](CCN)NC(=O)[C@H](CCN)NC1=O [Ex. 190] (I: H-[Hiv]EYCE[dDab]TWC[Tle][Dab][Thr(ol)] / II: [Dab]T[Dab][Dab][Dab][dL]L[Dab][Dab]T; disulfide I:4-I:9; amide I:5-II:N; lactam II:4-II:C) | <1%
7 | 0.125 µg/mL (≈ 0.0524 µM) | 0.125 µg/mL (≈ 0.0524 µM) | 0.5 µg/mL (≈ 0.21 µM) | 0.5 µg/mL (≈ 0.21 µM) | 0.125 µg/mL (≈ 0.0524 µM) | 0.25 µg/mL (≈ 0.105 µM) | 0.25 µg/mL (≈ 0.105 µM) | 0.125 µg/mL (≈ 0.0524 µM) | CC(C)CC(=O)N[C@H]1CSSC[C@@H](C(=O)N[C@H](CO)[C@@H](C)O)NC(=O)[C@H](C(C)(C)C)NC(=O)[C@H](CO)NC(=O)[C@H](Cc2c[nH]c3ccccc23)NC(=O)[C@H](CCO)NC(=O)[C@@H](CCN)NC(=O)[C@H](CCC(=O)N[C@@H](CCN)C(=O)N[C@H](C(=O)N[C@@H](CCN)C(=O)N[C@H]2CCNC(=O)[C@H]([C@@H](C)O)NC(=O)[C@H](CCN)NC(=O)[C@H](CCN)NC(=O)[C@H](CC(C)C)NC(=O)[C@@H](CC(C)C)NC(=O)[C@H](CCN)NC2=O)[C@@H](C)O)NC(=O)[C@H](CCN)NC(=O)[C@H](Cc2ccc(O)cc2)NC1=O [Example 2] (I: Isovaleryl-CY[Dab]E[dDab][hSer]WS[Tle]C[Thr(ol)] / II: [Dab]T[Dab][Dab][Dab][dL]L[Dab][Dab]T; disulfide I:1-I:10; amide I:4-II:N; lactam II:4-II:C) | <1%
8 | 0.0625 µg/mL (≈ 0.0254 µM) | 0.125 µg/mL (≈ 0.0509 µM) | 0.125 µg/mL (≈ 0.0509 µM) | 0.125 µg/mL (≈ 0.0509 µM) | 0.0625 µg/mL (≈ 0.0254 µM) | 0.125 µg/mL (≈ 0.0509 µM) | 0.125 µg/mL (≈ 0.0509 µM) | 0.0625 µg/mL (≈ 0.0254 µM) | CC(C)C[C@@H]1NC(=O)[C@@H](CC(C)C)NC(=O)[C@H](CCN)NC(=O)[C@@H](NC(=O)[C@H](CCN)NC(=O)[C@@H](NC(=O)[C@H](CCN)NC(=O)CC[C@@H]2NC(=O)[C@H](CCN)NC(=O)[C@H](Cc3ccc(O)cc3)NC(=O)[C@@H](NC(=O)[C@@H](O)C(C)C)CSSC[C@@H](C(=O)N[C@H](CO)[C@@H](C)O)NC(=O)[C@H](C(C)(C)C)NC(=O)[C@H](CO)NC(=O)[C@H](Cc3c[nH]c4ccccc34)NC(=O)[C@H](CCO)NC(=O)[C@@H](CCCNC(=N)N)NC2=O)[C@@H](C)O)CCNC(=O)[C@H]([C@@H](C)O)NC(=O)[C@H](CCN)NC(=O)[C@H](CCN)NC1=O [Ex. 75] (I: H-[Hiv]CY[Dab]E[dR][hSer]WS[Tle]C[Thr(ol)] / II: [Dab]T[Dab][Dab][Dab][dL]L[Dab][Dab]T; disulfide I:2-I:11; amide I:5-II:N; lactam II:4-II:C) | <1%
